# Assay results reported in article PMC11648822, “Lactam Truncation Yields a Dihydroquinazolinone Scaffold with Potent Antimalarial Activity that Targets PfATP4” (Chemmedchem, 2024).
# Where two headings read alike, the source gives them in different places.
# What was measured:
# [1] = tested on: P. falciparum Dd2 PfATP4^F156L strain; assay: 'compound 49' resistant parasite viability assay (LDH), Dd2 F156L; type: cell-based; conditions: Plasmodium falciparum, DD2, 72 h, read-out: Dd2^F156L EC50 (SD)
# Method: (§1) These assays were performed according to a previously described protocol.[16] Briefly, P. falciparum Dd2 strains treated with compound were incubated for 72 h at 37 °C. After incubating for 72 h, plates were frozen at −80 °C and then thawed at room temperature for at least 2 h. LDH activity, a surrogate for parasite growth was measured by the addition of the Malstst reagent mix, followed by incubation for 30 min and absorbance read using a ClarioStar Microplate reader at 650 nm. Values were normalized to DMSO control as a percentage and EC50 and dose response curves generated using GraphPad Prism.
# [2] = tested on: P. falciparum Dd2 PfATP4^D425E strain; assay: 'compound 49' resistant parasite viability assay (LDH), Dd2 D425E; type: cell-based; conditions: Plasmodium falciparum, DD2, 72 h, read-out: Dd2^D425E EC50 (SD)
# Method: as §1
# [3] = tested on: P. falciparum Dd2 strain with 2.8-fold amplification in PfATP4; assay: 'compound 49' resistant parasite viability assay (LDH), Dd2 2.8 CNV; type: cell-based; conditions: Plasmodium falciparum, DD2, 72 h, read-out: Dd2^2.8 CNV EC50 (SD)
# Method: as §1
# [4] = tested on: P. falciparum Dd2 PfATP4^triple (I398F, P990R, D1247Y) strain; parameters: method as in Ashton, Dans et al. 10; conditions: ref Ashton, Dans et al. 10; cited from earlier work
# [5] = tested on: P. falciparum (Pf) 3D7 parasites; parameters: method as in PMID 36812492, PMID 39134060; conditions: Figure 1; cited from earlier work
# [6] = parameters: method as in PMID 39134060; conditions: 25 mg/kg oral dose, 4-day model; recrudescence detected after day 4; cited from earlier work
# [7] = Figure 1; cited from earlier work
# [8] = target: T1, PfATP4 (membranes prepared from 3D7 parasites) (Plasmodium falciparum, UniProt A0A143ZZK9); assay: PfATP4 Na+ assay (membrane ATPase), 3D7 membranes; type: biochemical, P. falciparum; conditions: 50 nM; any of the conditions tested; negative control
# T1 construct: The membranes were prepared from isolated trophozoite‐stage 3D7 parasites; endogenous in cells; host or cells: P. falciparum 3D7 trophozoites (membrane preparation)
# T1 sequence (A0A143ZZK9 whole entry): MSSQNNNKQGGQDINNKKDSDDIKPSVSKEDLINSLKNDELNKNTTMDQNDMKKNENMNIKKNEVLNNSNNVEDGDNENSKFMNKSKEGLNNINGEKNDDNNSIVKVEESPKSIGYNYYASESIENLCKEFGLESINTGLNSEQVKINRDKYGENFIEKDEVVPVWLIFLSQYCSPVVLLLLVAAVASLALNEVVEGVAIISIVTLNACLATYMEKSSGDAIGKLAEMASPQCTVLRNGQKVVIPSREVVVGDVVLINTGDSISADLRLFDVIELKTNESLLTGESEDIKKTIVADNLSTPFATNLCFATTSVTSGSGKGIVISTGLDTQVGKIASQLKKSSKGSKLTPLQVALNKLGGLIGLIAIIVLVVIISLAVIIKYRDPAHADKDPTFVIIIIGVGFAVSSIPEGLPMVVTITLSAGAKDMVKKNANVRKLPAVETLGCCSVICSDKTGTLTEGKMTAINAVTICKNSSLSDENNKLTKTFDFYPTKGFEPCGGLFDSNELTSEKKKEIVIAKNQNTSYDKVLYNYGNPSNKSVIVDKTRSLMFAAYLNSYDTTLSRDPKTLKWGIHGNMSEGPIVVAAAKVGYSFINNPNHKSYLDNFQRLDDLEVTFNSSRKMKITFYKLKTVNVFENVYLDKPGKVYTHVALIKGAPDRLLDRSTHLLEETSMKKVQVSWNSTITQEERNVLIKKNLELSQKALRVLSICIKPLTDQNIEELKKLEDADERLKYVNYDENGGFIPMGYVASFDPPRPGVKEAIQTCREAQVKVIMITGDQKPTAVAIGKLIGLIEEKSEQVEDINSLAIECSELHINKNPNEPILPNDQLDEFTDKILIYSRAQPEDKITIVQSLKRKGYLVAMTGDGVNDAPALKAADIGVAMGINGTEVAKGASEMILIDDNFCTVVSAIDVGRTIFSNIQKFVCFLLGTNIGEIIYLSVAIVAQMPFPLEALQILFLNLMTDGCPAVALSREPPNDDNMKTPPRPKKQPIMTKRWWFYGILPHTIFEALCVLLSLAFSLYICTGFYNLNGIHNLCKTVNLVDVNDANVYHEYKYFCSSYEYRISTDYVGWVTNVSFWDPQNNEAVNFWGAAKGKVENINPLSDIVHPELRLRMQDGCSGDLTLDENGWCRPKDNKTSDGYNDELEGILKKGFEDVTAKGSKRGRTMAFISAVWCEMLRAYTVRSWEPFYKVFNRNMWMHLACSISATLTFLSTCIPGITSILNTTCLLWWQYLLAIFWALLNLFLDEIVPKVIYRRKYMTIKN
# Method: Figure 4 Dihydroquinazolinone analogs 14 and 36 (WJM062) inhibit Na^+‐ATPase activity in membranes prepared from isolated P. falciparum parasites, consistent with them being PfATP4 inhibitors. (A) The effects of dihydroquinazolinone compounds (2 μM), dihydroartemisinin (DHA; 50 nM; negative control) and 0.2 % v/v DMSO (solvent‐only control) on membrane ATPase activity under high‐[Na^+] conditions (152 mM Na^+) and low‐[Na^+] conditions (2 mM Na^+; stemming from the addition of 1 mM Na2ATP) in the presence and absence of the PfATP4 inhibitor cipargamin (50 nM). The membranes were prepared from isolated trophozoite‐stage 3D7 parasites. The Pi produced is expressed as a percentage of that measured in the 152 mM Na^+ Control. The data are from four independent experiments performed with different membrane preparations; the symbols show the data from individual experiments and the bars show the mean (+SEM). In individual experiments, the Pi produced in the 152 mM Na^+ Control varied from 66 to 96 nmol per mg (total) protein per min. A repeated measures ANOVA with a post hoc Tukey test was used to compare the (pre‐normalised) data for different compounds and conditions. For comparisons between different conditions for the same test compound (or for the Control), significant differences are shown with black asterisks. For comparisons between the Control and a compound under the same test condition, significant differences are shown with coloured asterisks (in this case, grey asterisks, as the only significant differences were between the control and the dihydroquinazolinone compounds in the 152 mM Na^+ condition). ***P<0.001. (B) Concentration‐dependence of the effects of dihydroquinazolinone compounds on PfATP4‐associated ATPase activity in membranes prepared from 3D7 parasites. The data are the mean (shown + or − SEM) obtained from four independent experiments performed with different membrane preparations, with the exception of the lowest and second‐lowest concentrations of the compounds, for which data are from two and three independent experiments, respectively. (C and D) Potency of dihydroquinazolinone compounds against PfATP4‐associated ATPase activity in membranes prepared from Dd2‐Polδ‐PfATP4^G358S parasites (open triangles) and their Dd2‐Polδ parents (closed triangles). The data are the mean (shown + or − SEM) from four (C) or three (D) independent experiments. In B−D, the Pi production measured in the low‐[Na^+] (2 mM) condition was subtracted from that measured in high‐[Na^+] (152 mM) in the presence of each of the different concentrations of dihydroquinazolinone compounds to calculate the PfATP4‐associated ATPase activity. The PfATP4‐associated ATPase activity is expressed as a percentage of that obtained for the high‐[Na^+] (152 mM) Control.
# Membrane ATPase assays were performed using a PiColorLock Gold Phosphate Detection System (Innova Biosciences), essentially as described previously.[25] Membranes were prepared either from isolated 3D7 trophozoites or from isolated Dd2‐Polδ‐PfATP4^G358S [22] and Dd2‐Polδ trophozoites.[26]
# [9] = tested on: P. falciparum (Pf) 3D7 parasites; assay: P. falciparum LDH viability assay; type: cell-based; conditions: Plasmodium falciparum, 3D7, 72 h, LDH activity at 72 h; mean and SD of 3 independent experiments
# Excerpt: This assay is a platform assay conducted at the Walter and Eliza Hall Institute and uses a protocol previously decsribed.[30, 31]
# [10] = Human HepG2 cytotoxicity assay (Cell Titre Glo); type: cell-based; conditions: HepG2 cells, growth inhibition at 48 h, 4 replicate experiments, read-out: HepG2 CC50 (SD)
# Excerpt: This assay uses Cell TitreGlo as a metabolic maker for human HepG2 cell growth and uses a protocol previously described.[32]
# [11] = tested on: P. falciparum Dd2 parental strain; assay: PfATP4 drug resistant parasite viability assay (LDH), Dd2 parental; type: cell-based; conditions: Plasmodium falciparum, DD2, 72 h, read-out: Dd2^parental EC50 (SD)
# Method: as §1
# [12] = tested on: P. falciparum Dd2 PfATP4^triple (I398F, P990R, D1247Y) strain; assay: PfATP4 drug resistant parasite viability assay (LDH), Dd2 triple; type: cell-based; conditions: Plasmodium falciparum, DD2, 72 h, read-out: Dd2^triple EC50 (SD)
# Method: as §1
# [13] = tested on: P. falciparum Dd2 PfATP4^G358S strain; assay: PfATP4 drug resistant parasite viability assay (LDH), Dd2 G358S; type: cell-based; conditions: Plasmodium falciparum, DD2, 72 h, read-out: Dd2^G358S EC50 (SD)
# Method: as §1
# [14] = tested on: P. falciparum 3D7 parasites; assay: P. falciparum viability assay (SYBR green), 3D7; type: cell-based; conditions: Plasmodium falciparum, 3D7; SYBR green, 72 h; read-out: P. falciparum parental EC50 (SD) 3D7
# Method: (§2) These assays were performed as previously described.[16] […] Parasites were synchronised with 5 % (w/v) sorbitol (Sigma‐Aldrich) treatments for ring stages. […] Parasites were grown in 1 % haematocrit, at 1 % and 2 % parasitaemia for P. falciparum and P. knowlesi respectively. […] Parasitaemia was measured using a SYBR DNA staining assay on a fluorometer.[33] After the incubation period, supernatants were removed and well contents were resuspended in PBS.
# P. falciparum Dd2 = assay: P. falciparum viability assay (SYBR green), Dd2; type: cell-based; conditions: Plasmodium falciparum, DD2, 72 h, read-out: P. falciparum parental EC50 (SD) Dd2
# Method: (§3) These assays were performed as previously described.[16] P. falciparum 3D7 parasites and resistant lines Dd2, W2mef, 7G8, and artemisinin‐resistant Cambodian isolate (Cam3.I (2539T)), and P. knowlesi YH1, were cultured in human O^+ erythrocytes (RBCs) (Australian Red Cross Blood Service), in RPMI‐HEPES culture medium (pH 7.4, 50 μg/mL hypoxanthine, 25 mM NaHCO3, 20 μg/mL gentamicin, 0.5 % Albumax II (GibcoBRL)) (Thermo Fisher Scientific) and maintained in an atmosphere of 1 % O2, 4 % CO2 and 95 % N2. Parasites were synchronised with 5 % (w/v) sorbitol (Sigma‐Aldrich) treatments for ring stages. Growth assays for measuring drug inhibition of in‐cycle, ring to schizont stage parasites have been described previously. Parasites were grown in 1 % haematocrit, at 1 % and 2 % parasitaemia for P. falciparum and P. knowlesi respectively. […] Parasitaemia was measured using a SYBR DNA staining assay on a fluorometer.[33] After the incubation period, supernatants were removed and well contents were resuspended in PBS.
# [15] = tested on: P. knowlesi YH1 parasites; assay: P. knowlesi viability assay (SYBR green); type: cell-based; conditions: Plasmodium knowlesi, 48 h, read-out: P. knowlesi EC50 (SD) YH1
# Method: as §2
# P. falciparum W2^mef = assay: Multidrug-resistant parasite viability assay (SYBR green), W2mef; type: cell-based; conditions: Plasmodium falciparum, W2, 72 h, read-out: multidrug resistant P. falciparum strains EC50 (SD) W2^mef
# Method: as §3
# P. falciparum 7G8 = assay: Multidrug-resistant parasite viability assay (SYBR green), 7G8; type: cell-based; conditions: Plasmodium falciparum, 7G8, 72 h, read-out: multidrug resistant P. falciparum strains EC50 (SD) 7G8
# Method: as §3
# P. falciparum CAM3.1 = assay: Multidrug-resistant parasite viability assay (SYBR green), CAM3.1; type: cell-based; conditions: Plasmodium falciparum, 72 h, read-out: multidrug resistant P. falciparum strains EC50 (SD) CAM3.1
# Method: as §3
# P. berghei ANKA = assay: P. berghei 4-day mouse model; type: in vivo; conditions: 30 mg/kg p.o. q.d.
# Method: In this model, mice are infected with P. berghei ANKA asexual blood stage parasites. Compounds are then administered by oral gavage at 20 mg/kg 2, 24, 48, and 72 hours after the parasite infection.
# Each day, a fresh aliquot of the compound stock was diluted 1/10 in water for administration to mice. 8 week old female mice (Ozgene) on day 0 were infected with 2×10^7 P. berghei ANKA‐infected erythrocytes. […] 2 mice were also dosed with artesunate using the same regime at 30 mg/kg. The parasitemia of mice was assessed by visualizing Giemsa‐stained thin blood smears by microscopy and a minimum of 1000 RBCs were counted. To calculate the percent antimalarial activity the following formula was used: 100 ‐ (mean parasitemia treated day 4 post‐infection/mean parasitemia vehicle control day 4 post‐infection)×100. Mice were culled the day following the last oral gavage.
# Briefly, ‘donor’ female Swiss mice were infected intraperitoneally (IP) with blood stage P. berghei parasites constitutively expressing GFP (P. berghei ANKA GFPcon 259cl2).[36] Three days later, groups of 3 ‘acceptor’ Swiss mice were infected intravenously with 1 x 10^7 parasitised red blood cells from the ‘donor mice’. […] Control mice were left untreated. Peripheral blood samples were taken 24 h after administration of the last dose, and parasitemia was measured by flow cytometry (proportion of GFP‐positive cells in 100,000 recorded events using Attune Nxt, ThermoFisher) and microscopic analysis of Giemsa‐stained blood smears. Parasitemia values were averages of 3 mice per group.
# [16] = tested on: P. falciparum Dd2 parental strain; parameters: method as in Ashton, Dans et al. 10; conditions: LDH at 72 h; ref Ashton, Dans et al. 10; cited from earlier work
# [17] = tested on: P. falciparum Dd2 PfATP4^G358S strain; parameters: method as in Ashton, Dans et al. 10; conditions: ref Ashton, Dans et al. 10; cited from earlier work
compound,measurement,setting,value
"C[C@H]1Cc2c([nH]c3cc(Cl)c(F)cc23)[C@@]2(N1)C(=O)Nc1ccc(Cl)cc12 [KAE609, reference compound]",EC50,[1],4 nM
same,EC50,[2],2 nM
same,EC50,[3],3 nM
same,EC50,[4],9 nM
CN1C(=O)c2c(F)cc(-c3cnn(C)c3)cc2N2C(=O)CCC12C(=O)Nc1cncc(Cl)c1 (centres unmarked) [S-WJM992 (5)],EC50,[5],8 nM
same,effect on parasitemia,[6],cleared parasitemia
same,Rat hepatocytes CLint,[7],14 μL/min/10^6 cells
"C[C@H]1[C@@H](O)O[C@@H]2O[C@@]3(C)CC[C@H]4[C@H](C)CC[C@@H]1[C@@]24OO3 [dihydroartemisinin, reference compound]",effect on membrane ATPase activity,[8],no effect
"CN1C(=O)c2ccc(Cl)cc2NC1(C)C(=O)Nc1cccc(Cl)c1 (centres unmarked) [Compound 11, 7‐Chloro‐N‐(3‐chlorophenyl)‐2,3‐dimethyl‐4‐oxo‐1,2,3,4‐tetrahydroquinazoline‐2‐carboxamide]",EC50,[9],18 nM
same,CC50 at 48 h,[10],> 40000 nM
same,EC50,[11],21 nM
same,EC50,[1],41 nM
same,EC50,[2],36 nM
same,EC50,[3],40 nM
same,EC50,[12],140 nM
same,EC50,[13],44 nM
same,EC50,[14],14 nM
same,EC50,P. falciparum Dd2,17 nM
same,EC50,[15],65 nM
same,EC50,P. falciparum W2^mef,9 nM
same,EC50,P. falciparum 7G8,33 nM
same,EC50,P. falciparum CAM3.1,13 nM
"C[C@H]1[C@H](OC(=O)CCC(=O)O)O[C@@H]2O[C@@]3(C)CC[C@H]4[C@H](C)CC[C@@H]1[C@@]24OO3 [artesunate, reference compound]",% parasitemia,P. berghei ANKA; day 4,0.66%
same,% reduction in parasitemia,"P. berghei ANKA; day 4, versus control",96%
"N#Cc1cc(NC(=O)[C@H]2c3ccccc3C(=O)N(CC(F)(F)F)[C@@H]2c2cccnc2)ccc1F [SJ733, reference compound]",EC50,[1],135 nM
same,EC50,[2],80 nM
same,EC50,[3],129 nM
same,EC50,[16],68 nM
same,EC50,[17],> 11000 nM
